The source of these data is PubChem BioAssay AID449750 (Broad Institute, 2010).

Values joined by “and” are separate entries in the source; they are usually repeats but may differ in a detail not shown here. Identical values can stand only once. Active and inactive are the calls of the source. How the calls were made is not given here. Where only a bound is given, the exact number is not on record here.

The nature of this test: non-covalent RecA intein splicing inhibitors, dose response, biochemical, cell-free, fluorescence, secondary screen (AID 449750).
For the compound `CCOc1ccc(C2C(C#N)=C(N)Oc3n[nH]c(C)c32)cc1OC(=O)C1CC1` (centres undefined), the AC50 (usually the concentration at which the activity in the assay is half-maximal) was > 38 µM (inactive). Consider `O=C(CCl)Nc1cn(-c2ccccc2)nc1-c1ccc(F)cc1`, for which the half-maximal activity concentration (AC50) was 2.82 µM. `O=C(O)c1ccccc1-c1ccccc1C(=O)Nc1ccc(-c2nc3cc(Cl)ccc3o2)cc1`: the AC50 was 9.29 µM.

For the compound `CCCCNC1C(CC)C(CCC)C(C#N)(C#N)C1(C#N)C#N` (centres undefined), the AC50 is > 38 µM (inactive). As for `O=C(c1ccc2nc(Cc3cccc(Cl)c3)oc2c1)N1CCC(O)CC1`, the AC50 was > 38 µM (inactive). The result for `CC(C)S(=O)(=O)C1=NSC2=NC(=O)/C(=C\c3ccc(OC(=O)c4ccco4)cc3)C(=N)N21` reads 30.6 µM; that for `O=c1cc(-c2cccc([N+](=O)[O-])c2)[nH][nH]1`, 9.77 µM. For the compound `c1cc2cn[nH]c2cc1NC1CCCCCC1`, the AC50 is 36.2 µM.

Take `CCCCCCCCCCC[N+](C)(C)CC/C=C1/c2ccccc2Sc2ccc(Cl)cc21`: the AC50 was 4.77 µM. The result for `O=C(CCl)N1c2ccccc2CCc2ccccc21` reads 3.76 µM; that for `O=C1Cc2ccccc2C(=O)N1Cc1ccccc1`, > 38 µM (inactive); that for `Nc1c(N2CCCC2)cc(Cl)c2nonc12`, 4.13 µM. As for `COc1ccc(C2CC(c3cccs3)=NN2C(=O)CCl)cc1OC` (centres undefined), the AC50 was 3.39 µM. On to `CC(=O)N1CC2(c3ccccc3)CN(C(C)=O)CC(c3ccccc3)(C1)C2=O`, for which the AC50 was > 38 µM (inactive).

In the case of `CSc1nnc(NC(=O)c2nc(S(=O)(=O)Cc3ccc(C)cc3)ncc2Cl)s1`, the AC50 was > 38 µM (inactive).

`O=C1C(=O)c2ccccc2C(O)=C1CCCCl`: the AC50 was 35.6 µM. As for `Oc1c(C=NCc2ccc(F)cc2)[nH]c2ccc(Br)c(Cl)c12`, the AC50 is 30.8 µM. Regarding `O=C(Cc1cc(=O)[nH][nH]1)N/N=C/C(Cl)=C/c1ccccc1`, the AC50 was 19.8 µM and 11.1 µM. The result for `CCCCCCCCCCOC(=O)Cn1c(COc2ccccc2)[n+](C)c2ccccc21` reads 7.97 µM.

Regarding `Cc1ccc(S(=O)(=O)/N=C2\C=C(Nc3cccc(C(=O)O)c3)C(=O)c3ccccc32)c(C)c1`, the AC50 was > 38 µM (inactive). For the compound `C=CCn1c(-c2cccnc2Cl)nc2ccccc21`, the AC50 was > 38 µM (inactive). Turning to `CN(C)c1ncc(C2=C(Cl)C(=O)C(N3CCCC3)=C(Cl)C2=O)s1`, the AC50 was 14 µM.

Regarding `O=c1[nH]c(CCl)nc2cc(-c3ccc(F)cc3)sc12`, the AC50 is 11.9 µM.

In the case of `CC(=O)C1=C(c2ccc(Br)cc2)C(=O)c2ccccc2C1=O`, the half-maximal activity concentration (AC50) was 7.18 µM. For `CC(C)CC(NC(=O)CCl)c1ccccc1` (centres undefined), the AC50 was 5.47 µM.

As to `Cc1c(N=C2C=CC(=O)c3ccccc32)c(=O)n(-c2ccccc2)n1C`, the AC50 was 3.51 µM. Take `Cn1c(=O)c([N+](=O)[O-])c(-n2ccnc2)c2ccccc21`: the AC50 was > 38 µM (inactive). Take `Oc1cnn(-c2ccccc2)c1`: the AC50 is > 38 µM (inactive). Consider `COc1cccc(-c2[nH]nc3c2C(c2ccoc2)C(C#N)=C(N)O3)c1` (centres undefined), for which the AC50 was 28.8 µM. Take `CN(C(=O)c1ccc(S(=O)(=O)c2cccc(Cl)c2)c([N+](=O)[O-])c1)C1CCCCC1`: the AC50 is 13.7 µM.

In the case of `COC1=CC(=O)C(O)=C(CCCCCCC/C=C/CCCCCCCC2=C(O)C(=O)C=C(OC)C2=O)C1=O`, the AC50 is 4.64 µM. The result for `O=C(Nc1ccccc1)c1nnsc1S(=O)(=O)c1ccc(Cl)cc1` reads > 38 µM (inactive); that for `COCc1[nH]nc2c1C(c1ccc(OC)c(OC)c1)C(C#N)=C(N)O2` (centres undefined), > 38 µM (inactive); that for `O=S(=O)(Nc1c(O)ccc2ccccc12)c1cccc2ccccc12`, 26.8 µM.

`COc1cc(NC(C)CCCN)c2ncccc2c1` (centres undefined): the half-maximal activity concentration (AC50) was 12.3 µM. Take `CC(Nc1c[nH]c(=O)[nH]c1=O)c1ccccc1` (centres undefined): the AC50 was > 38 µM (inactive). For `Cc1ccc(NC(=O)CSc2ncnc3ccccc23)cc1S(=O)(=O)N1CCCCCC1`, the AC50 is 30.2 µM. Regarding `CC1=NNC(=O)C1Cc1c(Cl)cccc1Cl` (centres undefined), the AC50 is > 38 µM (inactive). Take `Cc1nnc(N/N=C/c2ccccc2O)n1N`: the AC50 is 21.8 µM. With `Cc1ccc(C[n+]2c(-c3ccc(C)cc3)cc(-c3ccc(C)cc3)cc2-c2ccc(C)cc2)cc1`, the AC50 is 6.62 µM. `Nc1ccc2nc(CCCCc3nc4ccccc4[nH]3)[nH]c2c1`: the AC50 was > 38 µM (inactive).

Turning to `CCOC(=O)N1CCC2(CC1)C(C#N)=C(N)Oc1n[nH]c(C)c12`, the AC50 is > 38 µM (inactive). As for `Cc1nn(-c2ccccc2)c2c1C(c1cccs1)C(C#N)=C(N)O2` (centres undefined), the figure is 18.3 µM; as for `O=[N+]([O-])c1cc([N+](=O)[O-])c2c(=Nc3ccccc3)n(-c3ccccc3)n(O)c2c1`, 21.7 µM. Take `COc1cc(/C=C2/SC(=S)NC2=O)ccc1OS(=O)(=O)c1ccc(C)cc1`: the AC50 was 5.83 µM. With `CC(C)=CCC/C(C)=C/Cc1c(O)ccc(C(=O)/C=C/c2ccc(O)cc2)c1O`, the AC50 is 16.4 µM. Consider `COC1(OC)C(/C=C/c2ccc(C)cc2)C(C#N)(C#N)C1(OC)OC` (centres undefined), for which the AC50 was > 38 µM (inactive). With `O=C1c2ccccc2-c2c1nc1c([n+]2[O-])CCCC1`, the AC50 is 31.3 µM. The result for `CN1C=C/C(=C\c2cc[n+](C)c3ccccc23)c2ccccc21` reads 29.3 µM; that for `N#CCn1c(CCl)nc2ccccc2c1=O`, > 38 µM (inactive). In the case of `C#CCOC(=O)c1ccccc1C(=O)n1nnc2ccccc21`, the AC50 is > 38 µM (inactive). On to `COc1cccc(-n2nc(C#N)c(Cl)cc2=O)c1`, for which the AC50 was > 38 µM (inactive). `CCOC(=O)C1CCN(Cc2cc(C(C)C)c(O)c(C(C)C)c2)CC1`: the AC50 was > 38 µM (inactive). For `CC(=O)Oc1ccc(N(C(C)=O)S(=O)(=O)c2ccc3ccccc3c2)cc1Br`, the AC50 is 29.5 µM. `CC(C)(C)c1[nH]nc2c1C(c1ccoc1)C(C#N)=C(N)O2` (centres undefined): the AC50 was > 38 µM (inactive).

For the compound `CCOCC(=O)NCc1ccc2c(c1)cc(C)n2C`, the AC50 is > 38 µM (inactive). As for `COc1cc(C2(c3ccc(O)c(OC)c3)C(=O)Nc3c(C)cc(Br)cc32)ccc1O`, the AC50 was 9.32 µM. Take `COc1cccc(-c2cc(=O)[nH][nH]2)c1`: the AC50 was 13.9 µM. The result for `CCn1nc(/C=C/c2ccccc2)nc2c(=O)n(C)c(=O)nc1-2` reads 0.0666 µM; that for `CCc1[nH]nc2c1C(Cc1ccccc1)C(C#N)=C(N)O2` (centres undefined), > 38 µM (inactive); that for `CC(C)N(CC(=O)Nc1ccc(Cl)cc1C(F)(F)F)C(=O)CCl`, 12.9 µM.

On to `Cn1nc(C(C)(C)C)cc1C(=O)Sc1cccc(Br)c1`, for which the AC50 was > 38 µM (inactive).

Turning to `CC(=O)N(c1ccccc1)C(C)c1nc(C#N)c(C#N)nc1C` (centres undefined), the AC50 was > 38 µM (inactive). For the compound `C/C(CC(=O)Nc1ccc(Cl)cn1)=N\NC(=O)Cc1cccs1`, the AC50 was > 38 µM (inactive). Turning to `COc1ccc2c(c1)C(=C(C#N)C#N)C(=O)N2CCc1ccccc1`, the AC50 is > 38 µM (inactive). As for `Cc1ccc(NC2=C(Cl)C(=O)OC2OC(=O)c2ccco2)cc1C` (centres undefined), the AC50 was > 38 µM (inactive). Turning to `CN1CCc2nc(SCC(=O)Nc3ccc(OC(F)(F)F)cc3)c(C#N)c(-c3cccs3)c2C1`, the concentration at half-maximal activity (AC50) was 23.7 µM. For `CCOc1cc(/C=C2/C(=N)N3C(=NC2=O)SN=C3S(=O)(=O)C(C)C)ccc1OC(=O)c1ccco1`, the AC50 is > 38 µM (inactive). For the compound `CCOC(=O)C1CCN(c2nc(N)c3c(N)nc(SCC(=O)O)cc3c2C#N)CC1`, the AC50 is > 12 µM (inactive). Take `Nc1nc(CCl)nc(Nc2ccc3ccccc3c2)n1`: the half-maximal activity concentration (AC50) is 15.7 µM. With `Cc1cc2c3c(c1)C(C)CC(C)(C)N3C(=O)C2=C(C#N)C#N` (centres undefined), the AC50 is > 38 µM (inactive).

Take `Cc1nc(Nc2ccc(O)cc2)c2c3c(sc2n1)CCCC3`: the AC50 is > 38 µM (inactive). The result for `COc1cc(C2C(C#N)=C(N)Oc3c2c(-c2ccccc2)nn3-c2ccccc2)cc(OC)c1OC` (centres undefined) reads 29.9 µM; that for `COc1nc(NC(C)C)nc(N(C#N)CN2C(=O)c3ccccc3S2(=O)=O)n1`, > 38 µM (inactive); that for `COc1ccc(S(=O)(=O)/N=C2\C=C(NS(=O)(=O)c3ccccc3)C(=O)c3ccccc32)cc1`, 2.95 µM.

Turning to `CC(C)(C)c1cc(C(c2cccnc2)N2CCN(CCO)CC2)cc(C(C)(C)C)c1O` (centres undefined), the half-maximal activity concentration (AC50) is 17.7 µM. As to `O=[N+]([O-])c1cncc([N+](=O)[O-])c1Nc1cccc(O)c1`, the AC50 is > 38 µM (inactive).

Take `COC(=O)[C@@H]1C[C@]2(OC(=O)c3ccccc3)C=CC(=O)C[C@@H]2N1C(=O)OCc1ccccc1`: the AC50 was 24.5 µM. Consider `S=C1NCCC12C(=S)Nc1ccccc12` (centres undefined), for which the AC50 is > 38 µM (inactive).

Consider `CCSc1nnc(NC(=O)c2nc(S(=O)(=O)Cc3ccc(F)cc3)ncc2Cl)s1`, for which the AC50 was > 38 µM (inactive).

In the case of `O=C(NCc1cccnc1)/C(=C\c1ccc(-c2ccc(Br)cc2)o1)S(=O)(=O)c1ccccc1`, the AC50 is 24.7 µM. The result for `CC(C)(C)C(=O)Nc1ccc(N=Nc2ccccc2)cc1` reads 7.69 µM; that for `Cc1cccc(N(Cc2cc(=O)[nH]c3ccccc23)C(=O)CCl)c1`, 6.83 µM.

Regarding `CCOC(=O)CSCC(=O)N1N=C(c2cccs2)CC1c1ccc(F)cc1` (centres undefined), the AC50 is 16.9 µM. Consider `N#CC1=C(N)Oc2n[nH]c(-c3ccc(F)cc3)c2C1c1ccncc1` (centres undefined), for which the AC50 was 8.32 µM. Consider `CS/C(=C\[N+](=O)[O-])Nc1ccc(OC(F)(F)F)cc1`, for which the AC50 was > 38 µM (inactive). Take `N=C1/C(=C\c2ccc(OC(=O)c3ccc(F)cc3)cc2)C(=O)N=C2SC(N3CCOCC3)=NN12`: the AC50 was > 38 µM (inactive).

Regarding `O=c1[nH]c(Nc2ccc(F)cc2)cc2ccccc12`, the AC50 was 2.58 µM. Regarding `COc1ccc(S(=O)(=O)Nc2c(O)ccc3ccccc23)cc1OC`, the AC50 was 22.9 µM. As to `O=C(CN1C(=O)S/C(=C\C=C\c2ccccc2)C1=O)Nc1ccccc1C(=O)O`, the AC50 is 14.1 µM. On to `Cc1ccc(S(=O)(=O)NCC2CCC(C(=O)NCCCN3CCOCC3)CC2)cc1` (centres undefined), for which the AC50 is > 38 µM (inactive).

`CCOC(=O)C1CCN(S(=O)(=O)c2c(Cl)ccc3nonc23)CC1`: the AC50 is 11.6 µM. Take `CSc1ccc(C(c2c(C)[nH][nH]c2=O)c2c(C)[nH][nH]c2=O)cc1`: the AC50 was 7.2 µM. For the compound `CCc1[nH]nc2c1C1(CCN(C(=O)c3ccccc3)CC1)C(C#N)=C(N)O2`, the AC50 was 25 µM.
